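Exposure lasted 48 hours, with cells grown in 96-well plates and compounds tested at five concentrations. Here, GI50 denotes the concentration required for 50% inhibition of growth. TGI is the concentration that stops growth completely.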
Key:
Assay in all cases: NCI tumour cell line growth inhibition, 48 h
SN12C renal = test system: SN12C renal
RXF 393 renal = test system: RXF 393 renal
OVCAR-3 ovarian = test system: OVCAR-3 ovarian
NCI-H23 lung = test system: NCI-H23 lung
HCC-2998 colon = test system: HCC-2998 colon
SK-MEL-5 melanoma = test system: SK-MEL-5 melanoma
HS 578T breast = test system: HS 578T breast
SF-268 CNS = test system: SF-268 CNS
786-0 renal = test system: 786-0 renal
SF-539 CNS = test system: SF-539 CNS
PC-3 prostate = test system: PC-3 prostate
KM12 colon = test system: KM12 colon
SR leukemia = test system: SR leukemia
UACC-62 melanoma = test system: UACC-62 melanoma
SK-MEL-28 melanoma = test system: SK-MEL-28 melanoma
OVCAR-5 ovarian = test system: OVCAR-5 ovarian
M14 melanoma = test system: M14 melanoma
MALME-3M melanoma = test system: MALME-3M melanoma
TK-10 renal = test system: TK-10 renal
HL-60(TB) leukemia = test system: HL-60(TB) leukemia
HCT-15 colon = test system: HCT-15 colon
OVCAR-4 ovarian = test system: OVCAR-4 ovarian
CAKI-1 renal = test system: CAKI-1 renal
SNB-19 CNS = test system: SNB-19 CNS
RPMI-8226 leukemia = test system: RPMI-8226 leukemia
ACHN renal = test system: ACHN renal
MCF7 breast = test system: MCF7 breast
MDA-MB-468 breast = test system: MDA-MB-468 breast
EKVX NSCLC = test system: EKVX NSCLC
UACC-257 melanoma = test system: UACC-257 melanoma
HCT-116 colon = test system: HCT-116 colon
A498 renal = test system: A498 renal
SK-OV-3 ovarian = test system: SK-OV-3 ovarian
K-562 leukemia = test system: K-562 leukemia
SF-295 CNS = test system: SF-295 CNS
COLO 205 colon = test system: COLO 205 colon
UO-31 renal = test system: UO-31 renal
CCRF-CEM leukemia = test system: CCRF-CEM leukemia
SK-MEL-2 melanoma = test system: SK-MEL-2 melanoma

Cn1cc(-c2cc(N)n3nc(-c4c[nH]c5ccc(Cl)cc45)cc3n2)c2cccnc21
GI50 (SN12C renal): 1.52 µM
TGI (SN12C renal): 3.13 µM
GI50 (RXF 393 renal): 1.49 µM
TGI (RXF 393 renal): 2.9 µM
GI50 (OVCAR-3 ovarian): 1.68 µM
TGI (OVCAR-3 ovarian): 3.27 µM
GI50 (NCI-H23 lung): 1.71 µM
TGI (NCI-H23 lung): 3.39 µM
GI50 (HCC-2998 colon): 1.76 µM
TGI (HCC-2998 colon): 3.2 µM
GI50 (SK-MEL-5 melanoma): 1.65 µM
TGI (SK-MEL-5 melanoma): 3.06 µM
GI50 (HS 578T breast): 1.97 µM
TGI (HS 578T breast): 5.08 µM
GI50 (SF-268 CNS): 2.06 µM
TGI (SF-268 CNS): 4.82 µM
GI50 (786-0 renal): 1.56 µM
TGI (786-0 renal): 2.91 µM
GI50 (SF-539 CNS): 1.62 µM
TGI (SF-539 CNS): 3.01 µM
GI50 (PC-3 prostate): 2.54 µM
TGI (PC-3 prostate): 8.68 µM
GI50 (KM12 colon): 2.03 µM
TGI (KM12 colon): 4.18 µM
GI50 (SR leukemia): 2.3 µM
TGI (SR leukemia): > 100 µM
GI50 (UACC-62 melanoma): 1.63 µM
TGI (UACC-62 melanoma): 3.07 µM
GI50 (SK-MEL-28 melanoma): 1.53 µM
TGI (SK-MEL-28 melanoma): 2.9 µM
GI50 (OVCAR-5 ovarian): 1.73 µM
TGI (OVCAR-5 ovarian): 3.62 µM
GI50 (M14 melanoma): 1.81 µM
TGI (M14 melanoma): 3.42 µM
GI50 (MALME-3M melanoma): 1.62 µM
TGI (MALME-3M melanoma): 3.04 µM
GI50 (TK-10 renal): 2.02 µM
TGI (TK-10 renal): 4.64 µM
GI50 (HL-60(TB) leukemia): 1.8 µM
TGI (HL-60(TB) leukemia): 5.47 µM
GI50 (HCT-15 colon): 1.79 µM
TGI (HCT-15 colon): 3.94 µM
GI50 (OVCAR-4 ovarian): 1.79 µM
TGI (OVCAR-4 ovarian): 3.76 µM
GI50 (CAKI-1 renal): 1.64 µM
TGI (CAKI-1 renal): 3.5 µM
GI50 (SNB-19 CNS): 2.6 µM
TGI (SNB-19 CNS): 6.74 µM
GI50 (RPMI-8226 leukemia): 2.6 µM
TGI (RPMI-8226 leukemia): > 100 µM
GI50 (ACHN renal): 1.72 µM
TGI (ACHN renal): 3.17 µM
GI50 (MCF7 breast): 1.77 µM
TGI (MCF7 breast): 3.93 µM
GI50 (MDA-MB-468 breast): 1.56 µM
TGI (MDA-MB-468 breast): 3.25 µM
GI50 (EKVX NSCLC): 1.85 µM
TGI (EKVX NSCLC): 4.53 µM
GI50 (UACC-257 melanoma): 1.9 µM
TGI (UACC-257 melanoma): 3.87 µM
GI50 (HCT-116 colon): 1.81 µM
TGI (HCT-116 colon): 3.29 µM
GI50 (A498 renal): 20.1 µM
TGI (A498 renal): 37.7 µM
GI50 (SK-OV-3 ovarian): 2.03 µM
TGI (SK-OV-3 ovarian): 4.76 µM
GI50 (K-562 leukemia): 2.76 µM
TGI (K-562 leukemia): > 100 µM
GI50 (SF-295 CNS): 1.65 µM
TGI (SF-295 CNS): 3.13 µM
GI50 (COLO 205 colon): 1.75 µM
TGI (COLO 205 colon): 3.27 µM
GI50 (UO-31 renal): 1.55 µM
TGI (UO-31 renal): 3.05 µM
GI50 (CCRF-CEM leukemia): 2.51 µM
TGI (CCRF-CEM leukemia): 9.05 µM
GI50 (SK-MEL-2 melanoma): 12.3 µM
TGI (SK-MEL-2 melanoma): 24.7 µM

Reference: PubChem BioAssay (NCI)
